Source: patent US20230241226A1, “COMPOUNDS FOR TARGETED DEGRADATION OF CARRIER PROTEINS AND USES THEREOF” (CeMM - Forschungszentrum für Molekulare Medizin GmbH, priority 2019, published 2023)

Columns and labels:
Strep/HA SLC9A2 = molecular target: T1, Strep/HA SLC9A2 (Homo sapiens, UniProt Q9UBY0); test: Selectivity across SLC9 family: degradation of exogenous Strep/HA SLC9A2; format: cell-based; conditions: HAP1; 250 or 750 nM; 16 hours
T1 construct: expressed in transfected cells; host or cells: HAP1 (lentiviral, pRRL Strep-HA; cDNA synthesized by Genescript)
Description: (§1) (E) Selectivity of d9A1-2 was tested across HAP1 cell lines expressing Strep/HASLC9A1, 9A4, 9A5, 9A8, 9A2, 9B2, 9A6, 9A9, and 9A3. Cells were treated with varying concentrations of d9A1-2 for 16 hours, after which degradation of the exogenous SLCs was monitored.
(§2) SLC1A5, SLC2A1, SLC2A3, SLC16A1, SLC38A1, SLC38A2 were obtained as gateway-compatible pENTR/pDONR vectors from the Harvard PlasmID Repository. SLC39A7 was obtained from Dharmacon, GE Healthcare. The following vectors were synthesized by Genescript: SLC4A4, SLC7A3, SLC38A9, SLC25A1, SLC9A1, SLC9A2, SLC9A3, SLC9A4, SLC9A5, SLC9A6, SLC9A7, SLC9A8, and SLC9B2. SLC30A9, SLC33A1, SLC35B2, SLC25A26, and MTCH2 were a gift from the RESOLUTE consortium. cDNAs were transferred into gateway-compatible lentiviral expression vectors: pLX305 dTAG vectors (Addgene #91797/8) or pRRL Strep-HA (described previously43, EF1a promotor driven expression) using LR recombination (ThermoFisher Scientific). […]
(§3) For immunoblotting, whole cell extracts were prepared using RIPA lysis buffer (25 mM Tris/HCl pH 7.6, 150 mM NaCl, 1% NP-40, 1% sodium deoxycholate, 0.1% SDS, EDTA-free protease inhibitor (Roche) and phosphatase inhibitors 2+3 (Sigma- Aldrich)). […] Protein extracts were quantified and normalized using the BCA assay (Thermo Scientific). […]

Strep/HA SLC9A8 = molecular target: T2, Strep/HA SLC9A8 (Homo sapiens, UniProt Q9Y2E8); test: Selectivity across SLC9 family: degradation of exogenous Strep/HA SLC9A8; format: cell-based; conditions: HAP1; 250 or 750 nM; 16 hours
T2 construct: expressed in transfected cells; host or cells: HAP1 (lentiviral, pRRL Strep-HA; cDNA synthesized by Genescript)
Description: as §1, §2, §3

[1] = tested on: Peripheral blood mononuclear cells (PBMCs); test: Cell viability assay (CellTiter-Glo), single dose, FIG. 10; format: cell-based, human; conditions: patient samples; 75 nM d9A1-2 vs 7.5 µM EIPA; 72 hours
Description: FIG. 10: Viability assay Relative viability of Peripheral blood mononuclear cells (PBMCs) after single-dose treatment with the d9A1-2 molecule or ethyl-isopropyl amiloride (EIPA). PBMCs were isolated from healthy donors and patients with acute myeloid leukemia, multiple myeloma, B cell lymphoma and Hodgkin’s lymphoma, chronic lymphocytic leukeumia. Viability was assayed using the CellTiter-Glo assay, 72 hours post treatment.
Peripheral blood mononuclear cells (PBMCs) were isolated using Lymphoprep (Stem Cell Technologies) from healthy donors and patients with acute myeloid leukemia, multiple myeloma, B cell lymphoma, Hodgkin’s lymphoma, chronic lymphocytic leukeumia. For comparison of different samples, compounds were transferred on black 384-well plates using an acoustic liquid handler (Echo, Labcyte).
Cells were seeded in these plates at densities of 20,000 cells per well in RPMI media (Gibco), supplemented with 10% fetal calf serum (Gibco). Viability was measured after 72 hours using the CellTiter-Glo assay (Promega) on a plate reader (SpectraMax i3x, Molecular Probes). All measurements were done in technical quadruplicates. Toxicity achieved by treatment with d9A1-2 or ethyl-isopropyl amiloride (EIPA) (Sigma) was normalized to the reference controls. Dose response fitting curves were obtained and plotted using GraphPad Prism V8. Data is presented as mean +/- SD.

dTAG-HA SLC38A1 = molecular target: T3, dTAG-HA SLC38A1 (Homo sapiens, UniProt Q96SW2+Q9H2H9); test: Targeted degradation of dTAG-tagged SLC38A1 (western blot); format: cell-based
T3 construct: expressed in transfected cells
Description: (A) HAP1 cells expressing dTAG-HA SLC38A9, 38A2, or 38A1 were treated with 0.5 µM dTAG13 for 16, 24 or 48 hours.
as §2, §3
SLCs were ectopically expressed as fusions to a mutated FKBP domain, also known as the dTAG system. […] Each of the tested SLCs was stably expressed in HAP1 cells, and subcellular localization was assessed by immunofluorescence microscopy (FIG. 1B). […]

T3 sequence (Q16531 whole entry): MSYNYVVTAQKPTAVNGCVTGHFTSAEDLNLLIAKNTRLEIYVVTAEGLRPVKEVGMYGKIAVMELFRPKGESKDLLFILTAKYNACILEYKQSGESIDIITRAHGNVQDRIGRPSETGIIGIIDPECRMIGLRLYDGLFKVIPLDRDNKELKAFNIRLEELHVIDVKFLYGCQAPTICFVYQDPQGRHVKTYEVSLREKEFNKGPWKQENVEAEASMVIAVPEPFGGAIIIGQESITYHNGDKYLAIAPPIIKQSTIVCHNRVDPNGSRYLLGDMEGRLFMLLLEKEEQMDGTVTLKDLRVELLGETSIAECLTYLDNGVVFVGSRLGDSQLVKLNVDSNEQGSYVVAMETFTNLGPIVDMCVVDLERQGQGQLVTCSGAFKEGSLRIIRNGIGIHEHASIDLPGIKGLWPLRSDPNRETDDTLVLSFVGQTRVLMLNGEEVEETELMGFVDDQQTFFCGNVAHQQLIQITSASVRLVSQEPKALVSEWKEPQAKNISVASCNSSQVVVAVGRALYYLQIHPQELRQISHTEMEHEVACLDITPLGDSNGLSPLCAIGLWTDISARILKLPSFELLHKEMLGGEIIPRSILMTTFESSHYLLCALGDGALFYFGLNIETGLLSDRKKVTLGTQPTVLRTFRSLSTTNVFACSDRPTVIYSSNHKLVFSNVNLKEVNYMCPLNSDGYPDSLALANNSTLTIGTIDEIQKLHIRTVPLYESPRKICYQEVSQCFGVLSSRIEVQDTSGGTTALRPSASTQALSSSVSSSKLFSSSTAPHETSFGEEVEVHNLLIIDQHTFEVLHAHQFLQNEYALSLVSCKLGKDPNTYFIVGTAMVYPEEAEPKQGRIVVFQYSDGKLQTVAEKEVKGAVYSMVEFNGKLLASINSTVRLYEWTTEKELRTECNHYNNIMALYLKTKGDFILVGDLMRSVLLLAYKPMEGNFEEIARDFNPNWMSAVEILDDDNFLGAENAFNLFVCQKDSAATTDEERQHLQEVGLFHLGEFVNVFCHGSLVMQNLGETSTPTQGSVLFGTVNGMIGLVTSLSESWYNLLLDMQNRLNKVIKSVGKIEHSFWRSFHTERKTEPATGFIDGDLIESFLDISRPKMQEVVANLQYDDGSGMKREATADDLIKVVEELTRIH
T3 sequence (Q9H2H9 other isoform, or with tags, fused parts or gaps): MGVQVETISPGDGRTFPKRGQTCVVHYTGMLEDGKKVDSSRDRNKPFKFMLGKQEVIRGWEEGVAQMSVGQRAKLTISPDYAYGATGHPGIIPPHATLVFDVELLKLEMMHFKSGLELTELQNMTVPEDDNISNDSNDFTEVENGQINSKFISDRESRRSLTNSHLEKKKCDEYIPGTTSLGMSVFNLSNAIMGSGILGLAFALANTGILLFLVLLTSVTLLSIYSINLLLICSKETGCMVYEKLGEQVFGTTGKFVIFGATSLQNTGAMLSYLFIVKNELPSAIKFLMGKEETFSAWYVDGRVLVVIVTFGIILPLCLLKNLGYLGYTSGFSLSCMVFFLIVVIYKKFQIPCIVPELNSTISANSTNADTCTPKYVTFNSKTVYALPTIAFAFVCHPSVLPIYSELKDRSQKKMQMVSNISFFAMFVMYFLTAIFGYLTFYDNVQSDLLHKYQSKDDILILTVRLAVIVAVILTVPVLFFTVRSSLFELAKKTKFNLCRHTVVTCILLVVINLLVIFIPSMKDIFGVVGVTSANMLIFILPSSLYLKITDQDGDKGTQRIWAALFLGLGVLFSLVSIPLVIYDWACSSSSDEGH
T3 sequence (Q96SW2 whole entry): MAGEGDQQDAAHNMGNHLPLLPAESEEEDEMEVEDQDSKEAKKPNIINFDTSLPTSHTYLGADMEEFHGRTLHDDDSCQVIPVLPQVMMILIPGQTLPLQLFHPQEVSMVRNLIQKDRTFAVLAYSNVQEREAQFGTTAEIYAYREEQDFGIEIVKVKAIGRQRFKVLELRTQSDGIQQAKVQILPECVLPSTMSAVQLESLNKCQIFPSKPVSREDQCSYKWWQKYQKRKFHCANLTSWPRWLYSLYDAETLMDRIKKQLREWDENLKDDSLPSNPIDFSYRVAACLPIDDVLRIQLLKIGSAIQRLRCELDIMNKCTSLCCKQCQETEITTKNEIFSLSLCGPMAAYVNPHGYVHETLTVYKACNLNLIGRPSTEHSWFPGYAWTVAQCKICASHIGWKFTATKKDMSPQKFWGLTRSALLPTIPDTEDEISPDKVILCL
T1 sequence (Q9UBY0 whole entry): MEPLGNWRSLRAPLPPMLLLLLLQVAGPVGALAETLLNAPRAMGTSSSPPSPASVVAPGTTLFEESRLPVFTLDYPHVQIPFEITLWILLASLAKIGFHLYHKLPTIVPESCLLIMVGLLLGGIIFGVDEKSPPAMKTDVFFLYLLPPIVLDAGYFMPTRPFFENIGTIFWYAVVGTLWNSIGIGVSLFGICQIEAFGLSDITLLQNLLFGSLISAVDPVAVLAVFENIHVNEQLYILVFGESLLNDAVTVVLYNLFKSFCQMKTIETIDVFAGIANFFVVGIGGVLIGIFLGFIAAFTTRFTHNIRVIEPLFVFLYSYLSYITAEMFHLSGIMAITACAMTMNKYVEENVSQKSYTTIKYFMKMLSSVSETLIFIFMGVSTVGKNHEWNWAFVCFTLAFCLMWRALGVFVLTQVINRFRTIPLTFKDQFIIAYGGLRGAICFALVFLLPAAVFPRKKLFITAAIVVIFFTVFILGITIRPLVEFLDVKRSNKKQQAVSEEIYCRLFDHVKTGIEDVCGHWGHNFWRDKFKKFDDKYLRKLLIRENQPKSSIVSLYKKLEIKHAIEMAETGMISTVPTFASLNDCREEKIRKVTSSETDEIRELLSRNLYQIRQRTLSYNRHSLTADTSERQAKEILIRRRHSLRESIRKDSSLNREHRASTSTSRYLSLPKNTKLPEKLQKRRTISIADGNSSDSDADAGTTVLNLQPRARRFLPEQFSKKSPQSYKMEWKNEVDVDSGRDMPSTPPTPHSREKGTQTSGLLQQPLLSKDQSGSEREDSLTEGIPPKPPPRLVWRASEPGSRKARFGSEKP
T2 sequence (Q9Y2E8 whole entry): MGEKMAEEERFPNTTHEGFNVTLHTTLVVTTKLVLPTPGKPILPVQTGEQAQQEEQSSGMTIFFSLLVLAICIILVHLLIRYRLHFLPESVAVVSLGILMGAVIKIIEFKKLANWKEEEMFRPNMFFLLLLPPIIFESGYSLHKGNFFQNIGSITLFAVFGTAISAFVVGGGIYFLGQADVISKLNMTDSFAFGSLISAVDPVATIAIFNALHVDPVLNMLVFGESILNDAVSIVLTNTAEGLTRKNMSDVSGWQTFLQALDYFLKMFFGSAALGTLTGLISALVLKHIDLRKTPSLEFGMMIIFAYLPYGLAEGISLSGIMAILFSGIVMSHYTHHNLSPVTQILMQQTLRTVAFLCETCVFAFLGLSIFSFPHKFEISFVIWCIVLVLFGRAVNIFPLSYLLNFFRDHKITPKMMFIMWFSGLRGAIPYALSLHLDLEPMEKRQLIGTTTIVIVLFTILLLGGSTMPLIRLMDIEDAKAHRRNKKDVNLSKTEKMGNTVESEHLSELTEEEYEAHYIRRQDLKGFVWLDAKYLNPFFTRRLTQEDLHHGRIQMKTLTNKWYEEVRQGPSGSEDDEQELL

degradation of exogenous SLC9A2 (Strep/HA SLC9A2) | abundance of exogenous SLC9A8 (Strep/HA SLC9A8) | Structure (SMILES) | toxicity (relative viability) in patient PBMCs compared with EIPA [1] | degradation of the target SLC (dTAG-HA SLC38A1; HAP1, dTAG-HA SLC38A1, 0.5 µM, 16, 24 or 48 hours) | degradation of dTAG-HA SLC38A1 (antibodies against HA-tag and total protein) (dTAG-HA SLC38A1; HAP1 or 293T, PNGase de-glycosylated extracts)
prompted degradation | not significantly affected | Cc1cc(-c2ccc(C(=O)NCCOCCOCCOCCOCCNc3cccc4c3C(=O)N(C3CCC(=O)NC3=O)C4=O)cc2N2CCC(c3[nH]cnc3C)CC2)ccc1F (centres unmarked) [d9A1-2] | considerably more toxic than 7.5 µM EIPA | – | –
– | – | CC[C@H](C(=O)N1CCCC[C@H]1C(=O)O[C@H](CCc1ccc(OC)c(OC)c1)c1ccccc1OCC(=O)NCCCCCCOc1cccc2c1C(=O)N(C1CCC(=O)NC1=O)C2=O)c1cc(OC)c(OC)c(OC)c1 (some centres unmarked) [dTAG13] | – | Near-complete degradation | completely degraded
